One assay concerns ACAT. The assay can be described thus: ACAT enzyme assay; selectivity for DGAT over ACAT. It counts as biochemical. The note with it: DGAT vs ACAT enzyme assays. The protocol:
3) The ability of compounds to inhibit ACAT can be measured using a modification of the enzyme assay described in Billheimer (1985) Methods in Enzymology, 111, 286-293. The test assesses the ability of a test compound to inhibit the esterification of cholesterol by measuring the amount of radiolabeled cholesteryl oleate formed from radiolabeled oleoyl CoA. Compound was incubated with 10 μg membrane protein and 267 μM cholesterol. After a 5 minute pre-incubation at 37° C. the reaction was started by adding ^14C oleoyl coenzyme A (50 μM final concentration) and incubated at 37° C. for a further 30 minutes. The reaction was stopped by adding 2-propanol:heptane (12:1). Radioactive cholesteryl ester product was separated into the organic phase by adding heptane and 1M carbonate buffer pH 9.5. ACAT activity was quantified by counting aliquots of the upper heptane layer by liquid scintillography.
The selectivity of a compound to inhibit DGAT over inhibition of ACAT may be defined as the ratio of IC50 values generated in the DGAT and ACAT enzyme assays for a particular compound.

The next assay deals with T1, human DGAT1 (Homo sapiens, UniProt O75907).
T1 construct: made in house; host or cells: Sf9 insect cells, recombinant baculovirus; membrane fraction
T1 sequence (O75907 1-488): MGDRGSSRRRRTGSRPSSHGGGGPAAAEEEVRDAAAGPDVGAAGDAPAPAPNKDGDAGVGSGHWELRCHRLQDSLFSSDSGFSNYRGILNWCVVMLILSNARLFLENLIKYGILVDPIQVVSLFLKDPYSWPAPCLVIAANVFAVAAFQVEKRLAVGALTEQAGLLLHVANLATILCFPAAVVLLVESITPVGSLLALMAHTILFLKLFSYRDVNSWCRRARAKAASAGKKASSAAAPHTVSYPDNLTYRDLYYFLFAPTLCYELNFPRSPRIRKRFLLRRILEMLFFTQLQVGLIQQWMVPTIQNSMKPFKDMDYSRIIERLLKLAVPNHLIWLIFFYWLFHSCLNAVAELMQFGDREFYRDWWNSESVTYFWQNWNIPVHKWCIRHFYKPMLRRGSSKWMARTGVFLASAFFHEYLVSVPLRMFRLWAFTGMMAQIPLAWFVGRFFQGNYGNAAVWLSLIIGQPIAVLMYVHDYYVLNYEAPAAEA
Nature of the assay: Human Enzyme Assay (DGAT1 activity, 14C oleoyl coenzyme A, insect cell membranes). The note with it: human DGAT1 expressed in sf9 insect cell membranes. Format: biochemical. The protocol:
The in vitro assay to identify DGAT1 inhibitors uses human DGAT1 expressed in insect cell membranes as the enzyme source (Proc. Natl. Acad. Sci. 1998, 95, 13018-13023). Briefly, sf9 cells were infected with recombinant baculovirus containing human DGAT1 coding sequences and harvested after 48 h. Cells were lysed by sonication and membranes isolated by centrifuging at 28000 rpm for 1 h at 4° C. on a 41% sucrose gradient. The membrane fraction at the interphase was collected, washed, and stored in liquid nitrogen.
DGAT1 activity was assayed by a modification of the method described by Coleman (Methods in Enzymology 1992, 209, 98-102). Compound at 1-10 μM was incubated with 0.4 μg membrane protein, 5 mM MgCl2, and 100 μM 1,2 dioleoyl-sn-glycerol in a total assay volume of 200 μl in plastic tubes. The reaction was started by adding ^14C oleoyl coenzyme A (30 μM final concentration) and incubated at room temperature for 30 minutes. The reaction was stopped by adding 1.5 mL 2-propanol:heptane:water (80:20:2). Radioactive triolein product was separated into the organic phase by adding 1 mL heptane and 0.5 mL 0.1 M carbonate buffer pH 9.5. DGAT1 activity was quantified by counting aliquots of the upper heptane layer by liquid scintillography.

SMILES strings stand for the structures.

Turning to `O=C(Nc1ccc(O[C@H]2CC[C@H](C(=O)O)CC2)cc1)c1nnc(Nc2ccc(F)cc2)o1` [Example 13, trans-4-{4-[({5-[(4-fluorophenyl)amino]-1,3,4-oxadiazol-2-yl}carbonyl)amino]phenoxy}cyclohexanecarboxylic acid], the “selectivity to inhibit DGAT over inhibition of ACAT (ratio of IC50 values in the DGAT and ACAT enzyme assays)” value in the assay on ACAT was determined as 310 fold. On human DGAT1, this molecule had an IC50 of 17 nM.
